Source: ChEMBL document CHEMBL2163268, “Structure-based design of a novel series of potent, selective inhibitors of the class I phosphatidylinositol 3-kinases” (J Med Chem, 2012)

How the values were obtained:
[1] = biological target: Serine/threonine-protein kinase B-raf (Homo sapiens, UniProt P15056, V600E)
[2] = biological target: Serine/threonine-protein kinase mTOR (Homo sapiens, UniProt P42345)
in vitro = settings: rat, liver microsomes
[3] = biological target: T1, Phosphatidylinositol 4,5-bisphosphate 3-kinase catalytic subunit delta isoform (Homo sapiens, UniProt O00329); assay: biochemical
T1 sequence (O00329 whole entry): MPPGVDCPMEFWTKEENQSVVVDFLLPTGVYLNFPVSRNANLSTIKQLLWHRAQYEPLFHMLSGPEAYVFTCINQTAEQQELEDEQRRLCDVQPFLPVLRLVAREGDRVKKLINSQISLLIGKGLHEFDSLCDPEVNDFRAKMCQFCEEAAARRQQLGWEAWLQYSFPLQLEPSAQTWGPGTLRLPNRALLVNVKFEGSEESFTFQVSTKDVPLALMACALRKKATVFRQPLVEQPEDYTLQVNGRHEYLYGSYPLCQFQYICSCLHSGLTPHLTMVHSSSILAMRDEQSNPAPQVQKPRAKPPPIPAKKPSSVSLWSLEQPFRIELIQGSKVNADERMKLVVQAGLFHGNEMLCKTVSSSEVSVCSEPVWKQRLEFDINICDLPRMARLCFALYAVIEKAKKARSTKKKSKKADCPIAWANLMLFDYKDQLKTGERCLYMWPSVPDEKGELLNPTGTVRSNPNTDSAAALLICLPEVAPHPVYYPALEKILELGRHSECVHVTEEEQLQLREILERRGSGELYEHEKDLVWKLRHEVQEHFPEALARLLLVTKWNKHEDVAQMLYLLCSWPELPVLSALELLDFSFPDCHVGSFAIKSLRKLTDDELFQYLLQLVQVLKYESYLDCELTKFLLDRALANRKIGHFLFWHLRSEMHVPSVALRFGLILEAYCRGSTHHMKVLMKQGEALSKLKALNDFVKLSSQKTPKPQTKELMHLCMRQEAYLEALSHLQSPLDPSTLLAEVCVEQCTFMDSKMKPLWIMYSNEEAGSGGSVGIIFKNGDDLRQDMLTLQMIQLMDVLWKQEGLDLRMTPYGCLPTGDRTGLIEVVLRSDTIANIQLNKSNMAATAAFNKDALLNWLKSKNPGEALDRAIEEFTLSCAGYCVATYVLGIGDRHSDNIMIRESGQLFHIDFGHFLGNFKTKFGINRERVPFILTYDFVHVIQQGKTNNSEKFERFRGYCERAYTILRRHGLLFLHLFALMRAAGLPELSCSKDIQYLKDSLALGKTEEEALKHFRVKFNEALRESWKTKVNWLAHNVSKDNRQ

[4] = biological target: Phosphatidylinositol 4,5-bisphosphate 3-kinase catalytic subunit gamma isoform (Homo sapiens, UniProt P48736); assay: biochemical
[5] = biological target: Phosphatidylinositol 4,5-bisphosphate 3-kinase catalytic subunit beta isoform (Homo sapiens, UniProt P42338); assay: biochemical
[6] = biological target: Phosphatidylinositol 4,5-bisphosphate 3-kinase catalytic subunit alpha isoform (Homo sapiens, UniProt P42336); assay: biochemical
[7] = Oral bioavailability in rat at 2 mg/kg; assay type: ADME, organism-based; settings: in vivo
in vivo [8] = settings: rat, iv, 1 mg/kg
in vivo [9] = settings: rat, iv, 1 mg/kg; remark: listed apart in the source
in vivo [10] = settings: rat, plasma, po, 2 mg/kg
in vivo [11] = settings: rat, iv, 1 mg/kg; remark: listed apart in the source
[12] = biological target: Phosphatidylinositol 3-kinase catalytic subunit type 3 (Homo sapiens, UniProt Q8NEB9)
Sequence of Phosphatidylinositol 3-kinase catalytic subunit type 3 (Q8NEB9 whole entry): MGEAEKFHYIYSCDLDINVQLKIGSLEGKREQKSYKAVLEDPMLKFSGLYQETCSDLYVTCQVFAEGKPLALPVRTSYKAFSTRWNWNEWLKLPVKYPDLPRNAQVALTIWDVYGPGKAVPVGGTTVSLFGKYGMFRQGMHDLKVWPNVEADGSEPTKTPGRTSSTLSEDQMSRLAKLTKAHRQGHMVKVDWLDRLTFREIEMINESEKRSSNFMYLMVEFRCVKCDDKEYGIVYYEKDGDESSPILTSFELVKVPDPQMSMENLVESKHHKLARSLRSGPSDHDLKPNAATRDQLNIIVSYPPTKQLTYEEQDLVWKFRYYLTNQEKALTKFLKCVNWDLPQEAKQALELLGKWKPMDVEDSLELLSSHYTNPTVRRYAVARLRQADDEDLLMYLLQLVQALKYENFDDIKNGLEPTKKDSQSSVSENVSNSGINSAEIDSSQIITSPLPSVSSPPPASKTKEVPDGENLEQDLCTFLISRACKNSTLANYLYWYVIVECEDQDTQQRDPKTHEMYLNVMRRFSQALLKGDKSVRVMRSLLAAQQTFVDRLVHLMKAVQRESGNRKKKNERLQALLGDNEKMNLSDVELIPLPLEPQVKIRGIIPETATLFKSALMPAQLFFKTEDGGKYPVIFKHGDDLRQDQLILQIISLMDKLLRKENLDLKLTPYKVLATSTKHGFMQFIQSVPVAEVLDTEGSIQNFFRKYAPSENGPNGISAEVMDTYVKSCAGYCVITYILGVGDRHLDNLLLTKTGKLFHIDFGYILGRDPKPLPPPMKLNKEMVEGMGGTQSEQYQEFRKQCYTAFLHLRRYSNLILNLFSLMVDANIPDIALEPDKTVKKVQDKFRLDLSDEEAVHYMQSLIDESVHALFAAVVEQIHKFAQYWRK

Sequence of Phosphatidylinositol 4,5-bisphosphate 3-kinase catalytic subunit alpha isoform (P42336 whole entry, canonical isoform): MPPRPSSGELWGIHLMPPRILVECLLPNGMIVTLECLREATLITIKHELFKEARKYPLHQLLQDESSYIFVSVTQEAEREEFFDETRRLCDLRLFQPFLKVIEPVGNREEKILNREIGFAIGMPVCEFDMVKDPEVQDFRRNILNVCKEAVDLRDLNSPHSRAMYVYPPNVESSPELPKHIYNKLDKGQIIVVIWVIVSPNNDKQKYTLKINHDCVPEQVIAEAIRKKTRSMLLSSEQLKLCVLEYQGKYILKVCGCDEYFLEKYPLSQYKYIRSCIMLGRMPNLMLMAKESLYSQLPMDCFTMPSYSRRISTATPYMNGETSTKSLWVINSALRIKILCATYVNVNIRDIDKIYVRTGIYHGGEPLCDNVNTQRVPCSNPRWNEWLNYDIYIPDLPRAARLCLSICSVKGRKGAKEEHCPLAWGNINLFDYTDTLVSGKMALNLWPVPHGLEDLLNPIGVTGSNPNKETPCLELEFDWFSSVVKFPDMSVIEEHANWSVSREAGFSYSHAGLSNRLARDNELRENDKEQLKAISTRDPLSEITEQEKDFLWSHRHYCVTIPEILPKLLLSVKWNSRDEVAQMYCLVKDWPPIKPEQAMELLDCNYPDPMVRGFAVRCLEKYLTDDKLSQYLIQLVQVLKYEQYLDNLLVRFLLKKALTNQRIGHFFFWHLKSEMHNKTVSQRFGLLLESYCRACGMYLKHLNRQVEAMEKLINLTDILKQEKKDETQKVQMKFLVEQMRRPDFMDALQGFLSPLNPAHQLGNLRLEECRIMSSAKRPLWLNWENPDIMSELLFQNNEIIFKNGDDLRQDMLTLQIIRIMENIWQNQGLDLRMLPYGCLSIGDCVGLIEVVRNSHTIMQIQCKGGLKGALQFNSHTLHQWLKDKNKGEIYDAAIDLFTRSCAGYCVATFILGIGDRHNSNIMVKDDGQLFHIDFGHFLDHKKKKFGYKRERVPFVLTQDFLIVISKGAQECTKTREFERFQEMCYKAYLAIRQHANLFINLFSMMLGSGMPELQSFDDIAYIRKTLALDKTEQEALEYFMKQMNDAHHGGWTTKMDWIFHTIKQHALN
Sequence of Serine/threonine-protein kinase B-raf (P15056 2-766 V600E limits assumed): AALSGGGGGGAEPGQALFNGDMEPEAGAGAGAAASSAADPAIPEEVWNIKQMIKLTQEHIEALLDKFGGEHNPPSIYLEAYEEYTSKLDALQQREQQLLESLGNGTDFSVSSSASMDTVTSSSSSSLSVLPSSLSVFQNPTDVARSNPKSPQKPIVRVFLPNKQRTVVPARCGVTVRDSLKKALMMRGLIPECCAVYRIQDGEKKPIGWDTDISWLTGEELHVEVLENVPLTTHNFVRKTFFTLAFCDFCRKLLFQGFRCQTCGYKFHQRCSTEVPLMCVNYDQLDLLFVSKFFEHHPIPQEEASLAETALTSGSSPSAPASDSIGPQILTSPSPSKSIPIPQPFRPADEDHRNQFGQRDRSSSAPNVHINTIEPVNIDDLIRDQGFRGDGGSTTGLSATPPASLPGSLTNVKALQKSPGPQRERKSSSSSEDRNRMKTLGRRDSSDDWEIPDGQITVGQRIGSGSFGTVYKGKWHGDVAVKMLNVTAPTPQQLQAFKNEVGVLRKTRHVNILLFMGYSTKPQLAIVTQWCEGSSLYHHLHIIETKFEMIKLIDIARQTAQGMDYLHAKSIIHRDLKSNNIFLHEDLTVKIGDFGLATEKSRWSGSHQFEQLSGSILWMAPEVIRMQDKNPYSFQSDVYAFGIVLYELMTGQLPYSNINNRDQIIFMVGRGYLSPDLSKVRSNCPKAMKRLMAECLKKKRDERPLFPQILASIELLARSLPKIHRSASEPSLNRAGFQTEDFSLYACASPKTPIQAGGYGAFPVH
Sequence of Phosphatidylinositol 4,5-bisphosphate 3-kinase catalytic subunit gamma isoform (P48736 whole entry, canonical isoform): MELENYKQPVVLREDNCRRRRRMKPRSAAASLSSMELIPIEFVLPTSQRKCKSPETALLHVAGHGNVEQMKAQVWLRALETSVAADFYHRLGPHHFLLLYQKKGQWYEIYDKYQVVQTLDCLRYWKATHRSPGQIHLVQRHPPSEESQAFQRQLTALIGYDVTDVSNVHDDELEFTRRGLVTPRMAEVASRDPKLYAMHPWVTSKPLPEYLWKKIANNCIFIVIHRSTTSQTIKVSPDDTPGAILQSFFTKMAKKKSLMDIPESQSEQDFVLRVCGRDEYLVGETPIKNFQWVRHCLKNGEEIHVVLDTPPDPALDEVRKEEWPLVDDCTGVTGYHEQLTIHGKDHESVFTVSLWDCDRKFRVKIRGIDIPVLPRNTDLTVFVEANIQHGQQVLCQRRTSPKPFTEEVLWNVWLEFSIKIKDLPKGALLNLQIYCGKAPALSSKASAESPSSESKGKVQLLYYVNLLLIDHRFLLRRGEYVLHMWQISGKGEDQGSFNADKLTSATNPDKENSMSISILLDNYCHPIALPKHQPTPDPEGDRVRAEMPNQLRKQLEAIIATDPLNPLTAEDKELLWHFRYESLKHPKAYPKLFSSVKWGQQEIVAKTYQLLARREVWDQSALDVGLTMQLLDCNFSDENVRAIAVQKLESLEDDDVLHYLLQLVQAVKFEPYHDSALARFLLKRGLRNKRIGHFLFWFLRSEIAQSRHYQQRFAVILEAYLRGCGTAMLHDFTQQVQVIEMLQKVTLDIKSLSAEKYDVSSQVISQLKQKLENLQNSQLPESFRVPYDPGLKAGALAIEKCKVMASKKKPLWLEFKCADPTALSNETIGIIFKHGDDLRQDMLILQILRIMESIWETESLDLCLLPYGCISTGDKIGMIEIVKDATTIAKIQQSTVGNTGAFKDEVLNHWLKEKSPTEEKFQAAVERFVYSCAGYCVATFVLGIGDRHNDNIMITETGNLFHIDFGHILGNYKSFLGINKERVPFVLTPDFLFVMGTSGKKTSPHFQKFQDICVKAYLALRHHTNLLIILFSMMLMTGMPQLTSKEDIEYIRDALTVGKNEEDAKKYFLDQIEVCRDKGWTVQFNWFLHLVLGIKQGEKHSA
Sequence of Phosphatidylinositol 4,5-bisphosphate 3-kinase catalytic subunit beta isoform (P42338 whole entry, canonical isoform): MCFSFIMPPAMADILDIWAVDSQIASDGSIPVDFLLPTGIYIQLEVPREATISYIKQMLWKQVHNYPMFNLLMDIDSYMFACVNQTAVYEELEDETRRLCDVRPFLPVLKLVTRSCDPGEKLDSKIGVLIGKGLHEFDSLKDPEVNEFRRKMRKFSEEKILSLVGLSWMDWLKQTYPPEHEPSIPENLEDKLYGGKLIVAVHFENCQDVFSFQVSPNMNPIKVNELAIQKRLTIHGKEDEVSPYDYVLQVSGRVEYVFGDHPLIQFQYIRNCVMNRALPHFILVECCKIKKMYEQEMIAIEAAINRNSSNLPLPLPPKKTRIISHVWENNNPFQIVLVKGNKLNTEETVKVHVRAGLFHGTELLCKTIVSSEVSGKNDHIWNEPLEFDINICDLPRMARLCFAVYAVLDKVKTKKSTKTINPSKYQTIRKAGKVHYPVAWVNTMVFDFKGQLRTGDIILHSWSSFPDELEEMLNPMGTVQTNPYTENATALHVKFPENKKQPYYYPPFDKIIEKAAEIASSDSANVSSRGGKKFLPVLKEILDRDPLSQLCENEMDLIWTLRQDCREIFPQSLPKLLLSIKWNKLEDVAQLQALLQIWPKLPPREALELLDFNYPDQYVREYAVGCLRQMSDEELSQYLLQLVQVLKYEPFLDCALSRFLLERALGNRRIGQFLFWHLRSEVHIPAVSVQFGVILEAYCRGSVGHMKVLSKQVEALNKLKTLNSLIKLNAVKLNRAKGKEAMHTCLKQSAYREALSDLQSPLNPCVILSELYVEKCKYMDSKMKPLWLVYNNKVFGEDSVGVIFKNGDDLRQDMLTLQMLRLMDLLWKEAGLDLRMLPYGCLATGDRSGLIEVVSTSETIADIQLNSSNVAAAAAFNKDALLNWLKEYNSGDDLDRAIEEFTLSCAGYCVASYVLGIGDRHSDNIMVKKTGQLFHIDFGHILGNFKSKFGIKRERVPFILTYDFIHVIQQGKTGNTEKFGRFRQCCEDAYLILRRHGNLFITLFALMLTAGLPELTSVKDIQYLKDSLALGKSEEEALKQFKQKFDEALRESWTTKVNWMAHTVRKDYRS

IC50 [1] [nM] | IC50 [2] [µM] | microsomal CLint (in vitro) [µL/min/mg] | Ki [3] [nM] | Ki [4] [nM] | Ki [5] [nM] | Ki [6] [nM] | bioavailability [7] [%] | MRT (in vivo [8]) [h] | clearance (in vivo [9]) [mL/min/kg] | AUC (in vivo [10]) [µM·h] | Vd (in vivo [11]) [L/kg] | Compound | IC50 [12] [µM]
> 1000 | > 10 | 118 | 6000 | 2600 | > 10000 | 4900 |  |  |  |  |  | Cc1cc(-c2cccnc2Nc2cccc(O)c2)nc(N)n1 | 
> 1000 | 0.007 | 218 | 3 | 4 | 4 | 2 |  |  |  |  |  | Cc1ncnc(-n2c(Nc3cccc(O)c3)nc3ccccc32)n1 | 
 |  | 59 | 1 | 7 |  |  | 2 | 1.2 | 30 | 0.04 | 2.1 | COc1ccc(Nc2ncc(Cc3ccc(S(C)(=O)=O)cc3)cc2-c2nc(C)nc(N)n2)cn1 | 
 |  | 111 | 4 | 8 | 15 |  | 3 | 1 | 46.7 | 0.04 | 2.7 | COc1ccc(Nc2ncc(CC3CCN(S(C)(=O)=O)CC3)cc2-c2nc(C)nc(N)n2)cn1 | 
> 1000 | 0.36 | 62 | 56 | 51 | 35 | 28 |  |  |  |  |  | Cc1nc(N)cc(-c2cccnc2Nc2cccc(O)c2)n1 | 
> 1000 | > 10 | 76 | > 10000 | 3600 | 1300 | 3200 |  |  |  |  |  | Nc1cc(-c2cccnc2Nc2cccc3[nH]ncc23)nc(C(F)(F)F)n1 | 
> 1000 | > 10 | 65 | 130 | 88 | 51 | 92 |  |  |  |  |  | Cc1nc(N)nc(-c2cccnc2Nc2cccc3[nH]ncc23)n1 | > 9
 |  | 20 | 3 | 9 | 5 |  | 18 | 1.3 | 41.7 | 0.33 | 2.9 | COc1ccc(Nc2ncc(CN3CCC(S(C)(=O)=O)CC3)cc2-c2nc(C)nc(N)n2)cn1 | 
> 1000 | > 10 | 71 | 810 | 330 | 990 | 930 |  |  |  |  |  | Cc1nc(N)c(F)c(-c2cccnc2Nc2cccc3[nH]ncc23)n1 | 
> 1000 | > 10 | 41 | > 10000 | > 10000 | > 10000 | > 10000 |  |  |  |  |  | COc1ccc(N(C)c2ncccc2-c2nc(C)nc(N)n2)cn1 | 
> 1000 | > 10 | 75 | 370 | 91 | 110 | 150 |  |  |  |  |  | Cc1nc(N)cc(-c2cccnc2Nc2cccc3[nH]ncc23)n1 | 
> 1000 | > 10 | 56 | 5000 | 450 | 2300 | 1700 |  |  |  |  |  | Cc1nc(-c2cccnc2Nc2cccc3n[nH]cc23)c2c[nH]nc2n1 | 

Compound | IC50 [1] [nM] | IC50 [2] [µM] | microsomal CLint (in vitro) [µL/min/mg] | Ki [3] [nM] | Ki [4] [nM] | Ki [5] [nM] | Ki [6] [nM] | bioavailability [7] [%] | MRT (in vivo [8]) [h] | clearance (in vivo [9]) [mL/min/kg] | AUC (in vivo [10]) [µM·h] | Vd (in vivo [11]) [L/kg] | IC50 [12] [µM]
Cc1nc(N)nc(-c2cccnc2Nc2cccc3[nH]ccc23)n1 | > 1000 |  | 110 | 25 | 45 | 9 |  |  |  |  |  |  | > 9
